Test [1] has as its system cucumber cotyledon disks. The test can be described thus: Detection and measurement of reactive oxygen species (DCFDA). Type of test: cell-based. The conditions noted are these: 300 μM; for ROS levels: 16 h darkness then high light intensity 5 h; for ROS generation: complete darkness for 30 h. As to the method:
ROS cellular localization was determined by confocal microscopy using the fluorescent probe 2′,7′-dichlorofluorescein diacetate (DCFDA). Cucumber cotyledon disks (1 cm) were treated as described for the electrolyte leakage assay. Five disks were placed in 5 cm-Petri plates and exposed to different dilutions of compounds of formulas III and IV (0, 100 and 300 μM). Disks were incubated in darkness for 16 h before exposure to high light intensity for 5 h, or in darkness for 30 h. As positive control, disks were exposed to the same solvent as treated tissues but with 10 mM hydrogen peroxide (H2O2) for 30 min in the light. After each treatment, they were vacuum-infiltrated in the dark with 50 μM DCFDA in 10 mM Tris-HCl pH 7.5, and ROS were visualized in an Eclipse TE-2000-E2 Nikon confocal microscope with excitation at 488 nm and emission at 515/530 nm. Green fluorescence intensities were quantified using the image processing package Fiji of ImageJ software.

In the next test the test system is lettuce. As to the kind of experiment: Postemergence bioassay with lettuce in Petri dishes. It is filed as in vivo. The conditions noted are these: Lactuca sativa, post-emergence, day 6 (4 days after postemergence application), read-out: Average growth inhibition (%) as percentage of control; for inhibition at 500 µM: 0.50 mM; for inhibition at 1000 µM: 1.00 mM; for inhibition at 1500 µM: 1.50 mM. As to the method: Compounds of formula III and IV above were tested at different concentrations in a postemergence bioassay (in Petri dishes) against lettuce. Lettuce seeds were pre-incubated in Petri dishes with a filter paper and water for 2 days. After that, seedlings (15 mm approx.) were moved to a new Petri dish containing 4 mL of an aqueous solution of each compound or commercial herbicide. Plants length was measured at day 6 (4 days after postemergence application of the compounds). The results were compared to those obtained with acetochlor and glyphosate.
Plant length's axis starts in 15 mm because seeds were pre-incubated in water, so all seedlings were around 15 mm long at the beginning of the treatment.

Test [2] concerns cucumber cotyledon disks. As to the kind of experiment: Electrolyte leakage assay. It is filed as cell-based. The settings on record: for destabilization of cell membranes, electrolyte leakage / electrolyte leakage versus boiled positive control: 100 and 300 μM; for electrolyte leakage versus boiled positive control: 16 h dark plus 26 h of high light intensity. As to the method: The effects of pure furanochromones, compounds of formulas III and IV (Sigma Aldrich), on membrane stability were studied as described by Dayan and Watson.^23 Cucumber cotyledon disks were exposed to each furanochromone at 100 and 300 μM. Control tissues were exposed to the same solvent as treated tissues but without the compounds. Conductivity measurements were carried out at the beginning of the dark incubation period, a second measurement was made after 16 h, at which time the samples were placed under high light intensity, and final measurements were made after 8 and 26 h of light exposure. Each experiment consisted of three replicates. Maximum conductivity was measured by boiling three samples of each treatment for 20 min. To study if electrolyte leakage caused by compounds of formulas III and IV was light-dependent, two sets of Petri plates were prepared with cucumber cotyledon disks exposed to test compounds and control in both. One set was treated as described before (dark 16 h/light 26 h) while the other one was kept in darkness for 42 h. Conductivity measurements were done at the indicated times.

The test system of test [3] is ryegrass (Lolium multiflorum). As to the kind of experiment: Dose-response bioassay with ryegrass. Type of test: in vivo. The settings on record: 168 h, 7 days. The protocol: A filter paper and 5 lettuce or 10 mg of creeping bentgrass seeds were placed in each well of a 24-well plate. Stock solutions (10×) of test compounds were prepared in acetone. 180 μl of distilled water were added to each well together with 20 μl of stock solution or acetone in solvent control. Final concentration of acetone was 10% v/v. Plates were sealed with Parafilm, and incubated at 26° C. in a growth chamber set at 173 μmol m^−2 s^−1 continuous photosynthetically active radiation. Phytotoxic activity was qualitatively evaluated by visually comparing germination in each well with solvent control at 7 days. A qualitative estimation of phytotoxicity was obtained by using a rating scale of 0 to 5, where 0 was no effect, and 5 was no germination of seeds. This procedure was also used for testing the phytotoxicity of pure compounds on ryegrass. On this experiment 12-well plates were used. 10 seeds were placed per well and final volume was 300 μl in each one. During dose-response bioassays used for IC50 determination, germination percentage and length of plants were measured at 7 days in order to determine the concentration required for 50% germination and growth inhibition (IC50). All experiments were done in triplicate.
Using method described in Example 1, compounds of Formula III and IV above were tested against lettuce and ryegrass.
The percentage of germination and length of plants were determined at 7 days. Data represents means of three replicates±SD. The IC50 values, for both germination and growth inhibition by compounds III and IV on lettuce and ryegrass, were obtained from estimated parameters in the regression curves.
Statistical Analysis. Data from dose-response experiments were analyzed by a log-logistic model^37-38 using the dose-response curve module^39 of R software version 2.2.1.^40 Concentrations required for 50% germination or growth inhibition relative to control (IC50 values) were obtained from estimated parameters in the regression curves. The standard error (SE) of each estimation is provided. Data from phytotoxicity bioassays in the laboratory and greenhouse, ROS and cell death quantifications were analyzed by ANOVA using the InfoStat statistical software version 2015,^41 and Scheffe's test was employed to compare the means at α=0.05.

Test [4] relates to ryegrass, barnyardgrass, crabgrass, foxtail, millet, morningglory and velvetleaf. As to the kind of experiment: Pre-emergence bioassay in Petri dishes against different weeds. The conditions noted are these: 0.5 and 1.0 mM. Type of test: in vivo. As to the method: Compounds of Formulas III and IV above were tested in a pre-emergence bioassay (in Petri dishes) against different weeds at 0.5 and 1.0 mM. The seeds of different weeds were placed in Petri dishes with a filter paper and 4 mL of an aqueous solution of each compound or commercial herbicide.
Plant length was measured at 7 days of incubation.

Test [5] relates to crabgrass (D. sanguinalis) and velvetleaf (A. theophrasti). The test can be described thus: Greenhouse postemergence spray, 2.0 kg ai/ha. Type of test: in vivo, Digitaria sanguinalis; Abutilon theophrasti. The settings on record: for symptoms on leaves after post-emergence spray: 6-8-day-old plants, both weed species. The protocol:
Aqueous solutions containing commercial standards of pure compounds of formulas III and IV were prepared and sprayed on crabgrass (D. sanguinalis) and velvetleaf (A. theophrasti). For better dissolution of compounds in water Tween 20 (1% v/v) and acetone (1% v/v) were added to spray solution. For postemergence application 6-8-day-old plants were sprayed, and final rate of compounds was 2.0 kg active ingredient (ai) ha^−1. Plant height and dry weight were measured at 11 days after spray. Results were compared with atrazine at 1.0 kg ai ha^−1.

The mark [6] stands for this setting: read-out: IC50(μM) ± SE to inhibit germination.
The mark [7] stands for this setting: read-out: IC50(μM) ± SE to inhibit growth.

Each structure is given as a SMILES string. Where two headings read alike, the source gives them in different places.

Two compounds from patent US11083197B2, “Herbicidal composition comprising chromone derivatives and a method for weed control” (INVESTIGACIONES BIOLÓGICAS EN AGROQUÍMICOS ROSARIO S.A., priority 2015, dated 2021) can be followed below.

Broadly, the inhibition is the percentage by which the read-out fell short of the control. One may read the IC50 as the point on the concentration scale where inhibition reaches its midpoint.

In the case of `COc1c2ccoc2cc2oc(C)cc(=O)c12` [Formula IV, 4-methoxy-7-methyl-5H-furo[3,2-g]chromen-5-one], in the test with cucumber cotyledon disks [1], the ROS levels result is listed as “significantly higher than in the control” and the ROS generation result was “not detected”. In the test with lettuce, the inhibition at 500 µM came to 22%, the inhibition at 1000 µM is 85% and the inhibition at 1500 µM came out at 91%. The electrolyte leakage result in the test with cucumber cotyledon disks [2] (100 μM, after 8 h in the light) was “caused electrolyte leakage”. Besides, in the test with cucumber cotyledon disks [2], the “destabilization of cell membranes, electrolyte leakage” value is reported as “significant electrolyte leakage” and the “electrolyte leakage versus boiled positive control” value is on record as “comparable to the positive control”. Further, the IC50 in test [3] (setting [6]) came out at 502 ± 115 µM. The IC50 in test [3] (setting [7]) was 214 ± 23 µM. In addition, the “effect on growth and germination of different weeds” value in test [4] was “strongly interfered”. Also, the “symptoms on leaves after post-emergence spray” value in test [5] is “Necrosis symptoms”. Also, the “plant size and biomass respect solvent control” value in test [5] (11 days after spray) was “significant reduction of plant size and biomass”.
In the case of `COc1c2occc2c(OC)c2c(=O)cc(C)oc12` [Formula III, 4,9-dimethoxy-7-methyl-5H-furo[3,2-g]chromen-5-one], in the test on cucumber cotyledon disks [1], the ROS levels entry is reported as “significantly higher than in the control” and the ROS generation entry was “not detected”. Further, in the test on lettuce, the inhibition at 500 µM came out at 22%, the inhibition at 1000 µM turned out to be 85% and the inhibition at 1500 µM is 91%. Also, in the test with cucumber cotyledon disks [2], the “destabilization of cell membranes, electrolyte leakage” value is listed as “significant electrolyte leakage” and the “electrolyte leakage versus boiled positive control” value is on record as “comparable to the positive control”. In test [3] (setting [6]), the IC50 worked out at 637 ± 112 µM. Also, the IC50 in test [3] (setting [7]) was 244 ± 37 µM. In addition, in test [4], the “effect on growth and germination of different weeds” value is listed as “strongly interfered”. Also, the “symptoms on leaves after post-emergence spray” value in test [5] was “Necrosis symptoms”.
